From publication PMC2748089, “Bactericidal activities of the cationic steroid CSA-13 and the cathelicidin peptide LL-37 against Helicobacter pylori in simulated gastric juice” (BMC Microbiology, 2009)
Like-named read-outs stand apart in the source and are kept apart here. Ends that are not written are not given here.

Key:
H. pylori [1] = assay: MIC of conventional antibiotics against H. pylori on Muller-Hinton agar; assay type: cell-based, Helicobacter pylori; settings: for MIC: Helicobacter pylori; for Susceptibility classification by MIC: all H. pylori isolates, resistant when MIC above 4 μg/ml for AMX, 16 μg/ml for TET
Escherichia coli MG1655 = assay: Bacteria killing assay after pre-incubation in simulated gastric juice, or with mucin or bile; settings: E. coli MG1655, CFU count; for Antibacterial activity after pre-incubation at pH ~1.5 in the presence of pepsin: 3 h pre-incubation at 37°C in simulated gastric juice pH ~1.5 with pepsin 0.5 mg/ml; for Antibacterial activity after pre-incubation at pH ~1.5 in the presence of pepsin / Antibacterial activity after pre-incubation at pH ~1.5: versus PBS pH 7.4, pH adjusted to 7.4 before 1 h killing assay, means of three to four experiments; for Antibacterial activity after pre-incubation at pH ~1.5: 3 h pre-incubation at 37°C in simulated gastric juice pH ~1.5 without pepsin
H. pylori [2] = settings: for Change of MBC on addition of 2 mM MgCl2: HEPES buffer with 2 mM MgCl2 versus HEPES, data not shown
human red blood cells = tested on: human red blood cells
Experimental: (§1) Figure 5 Evaluation of cell toxicity. Hemoglobin and LDH release from human red blood cells and human gastric adenocarcinoma cells (panel A and B respectively) after addition of LL-37 (circles), WLBU2 (diamonds), and CSA-13 (triangles), followed by incubation for 1 h at 37°C. Data shown are means ± SD of three experiments. Morphology of human gastric adenocarcinoma cells before (control) and after LL-37, WLBU2 and CSA-13 treatment was evaluated by phase-contrast microscopy (panel C). Data from one representative experiment are shown.
The hemolytic activity of LL-37, WLBU-2 and CSA-13 (0-200 μg/ml), against human red blood cells (RBC) was tested using erythrocytes suspended in PBS. RBC prepared from fresh blood (Hematocrit ~5%) were incubated for 1 h at 37°C after addition of test molecules. Relative hemoglobin concentration in supernatants after centrifugation at 2000 × g was monitored by measuring the absorbance at 540 nm. 100% hemolysis was taken from samples in which 2% Triton X-100 was added.

drug-resistant bacteria = settings: previous susceptibility study; cited from earlier work
[3] = tested on: Human gastric adenocarcinoma cells (ATCC; CRL-1739); assay: LDH release from gastric adenocarcinoma cells; assay type: cell-based; settings: bactericidal concentrations against H. pylori and E. coli MG1655 in saline and nutrient containing buffer
Description: Figure 5 Evaluation of cell toxicity. […] Data shown are means ± SD of three experiments. […] Data from one representative experiment are shown.

pepsin = pepsin (Sus scrofa, UniProt P00791); assay: LC-MS analytical characterization after incubation with pepsin at low pH; settings: 3 h incubation with pepsin 0.5 mg/ml at pH ~1.5, 37°C; LC-MS (C18, ESI positive); data from one experiment
Experimental: The total ion chromatogram (TIC) is presented for each sample condition with an inset mass-to-charge (m/z) spectra showing intensity for the boxed TIC peaks. The molecular weight of intact LL-37 is 4494, which can be observed with multiple charges (m/z = 4 MW = 1124, m/z = 5 MW = 900, etc) in positive ion mode. The molecular weight of CSA13 is 678, which can be observed directly and with multiple charges. Data from one experiment are shown.
Analytical characterization was performed on the CSA-13 and LL-37 suspensions after 3H incubation with pepsin (0.5 mg/ml) at low pH (~1,5) at 37°C, using the Shimadzu (Columbia, MD) instrument (the LC-MS system consisted of a LC-20AB solvent delivery system and SIL-20A auto-sampler coupled to dual wavelength UV-Vis detector and a LCMS 2010EV single quadrupole mass spectrometer), coupled to a Shimadzu Premier C18 column (150 mm × 4.6 mm i.d., 5 μm particle size). The mobile phase flow rate was 1 ml/min with a starting ratio of 90% mobile phase A (water) and 10% mobile phase B (acetonitrile) both with 0.1% (v/v) formic acid. The analytical method consisted of the following steps: (i) sample injection and holding at 10% B for 5 min, (ii) linear gradient from 10% to 90% B over 15 minutes, (iii) holding at 90% B for 5 minutes, (iv) isocratic step to 10% B and holding for 5 minutes prior to the next sample injection. […]

[4] = tested on: Human gastric adenocarcinoma cells (ATCC; CRL-1739); settings: 10 μg/ml, 1 hour; phase-contrast microscopy
Experimental: as §1
Human gastric adenocarcinoma cells (ATCC; CRL-1739) were maintained in DMEM (BioWhittaker) culture supplemented with 10% heat-inactivated fetal bovine serum (Hyclone) at 37°C and 5% CO2. For LDH release assay and microscope evaluation cells were plated in 24 well plates and grown to confluence. In all experiments, the medium was changed to serum-free media ~12 h prior to cell treatment with LL-37, WLBU2 and CSA-13 (0-200 μg/ml) in individual wells, for 1 hour. Cell culture medium was then collected, centrifuged (10 mins, 5000 rpm, RT) and subjected to LDH evaluation (LDH-cytotoxicity Assay Kit; BioVision Inc.)

[5] = 96 h, H. pylori clinical strain 1, Muller-Hinton agar with 5% sheep blood, 4 days at 35°C, microaerophilic, read-out: MIC
[6] = 96 h, H. pylori clinical strain 2, Muller-Hinton agar with 5% sheep blood, 4 days at 35°C, microaerophilic, read-out: MIC
[7] = 96 h, H. pylori clinical strain 3, Muller-Hinton agar with 5% sheep blood, 4 days at 35°C, microaerophilic, read-out: MIC
[8] = 96 h, H. pylori clinical strain 4, Muller-Hinton agar with 5% sheep blood, 4 days at 35°C, microaerophilic, read-out: MIC
[9] = 96 h, H. pylori clinical strain 5, Muller-Hinton agar with 5% sheep blood, 4 days at 35°C, microaerophilic, read-out: MIC
[10] = 96 h, H. pylori clinical strain 6, Muller-Hinton agar with 5% sheep blood, 4 days at 35°C, microaerophilic, read-out: MIC
[11] = 96 h, H. pylori clinical strain 7, Muller-Hinton agar with 5% sheep blood, 4 days at 35°C, microaerophilic, read-out: MIC
[12] = H. pylori clinical strains 5, 6, 7, resistant when MIC above 1 μg/ml for CLR, 16 μg/ml for Metronidazole
[13] = HEPES buffer, 6 hours incubation at 37°C, inoculum 10^8 CFU/ml, all isolated strains of H. pylori

pepsin, sequence (P00791 60-385): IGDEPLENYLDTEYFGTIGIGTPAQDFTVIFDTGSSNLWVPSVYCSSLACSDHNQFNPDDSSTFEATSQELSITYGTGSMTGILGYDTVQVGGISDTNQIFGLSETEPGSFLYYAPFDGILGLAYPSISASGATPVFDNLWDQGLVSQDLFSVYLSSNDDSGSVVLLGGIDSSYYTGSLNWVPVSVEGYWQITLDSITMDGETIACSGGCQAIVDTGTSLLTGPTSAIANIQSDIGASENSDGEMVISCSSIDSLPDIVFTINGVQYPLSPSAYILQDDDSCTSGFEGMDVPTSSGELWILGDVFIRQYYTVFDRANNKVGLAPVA

Question: With `CC1(C)S[C@@H]2[C@H](NC(=O)[C@H](N)c3ccc(O)cc3)C(=O)N2[C@H]1C(=O)O` [AMX, Amoxicillin] as the molecule, how does the MIC (H. pylori [1]; [5]) read?
Answer: Its MIC is 0.094 µg/mL.

Question: What about the MIC (H. pylori [1]; [6]) of the same molecule?
Answer: Its MIC is under 0.016 µg/mL.

Question: And the MIC (H. pylori [1]; [7])?
Answer: The MIC was 0.016 µg/mL.

Question: What about the MIC (H. pylori [1]; [8]) of the same molecule?
Answer: The MIC was 0.032 µg/mL.

Question: What about the MIC (H. pylori [1]; [9]) of the same molecule?
Answer: The MIC was 0.25 µg/mL.

Question: And the MIC (H. pylori [1]; [10])?
Answer: The MIC was 0.032 µg/mL.

Question: What about the MIC (H. pylori [1]; [11]) of the same molecule?
Answer: Its MIC is 0.047 µg/mL.

Question: And the MIC (H. pylori [1]; ATCC43504, 96 h, read-out: MIC)?
Answer: Its MIC is 0.016 µg/mL.

Question: And the “Susceptibility classification by MIC” value (H. pylori [1])?
Answer: Its value is “susceptible”.

Question: Which “Resistance classification by MIC” value (H. pylori [1]; [12]) does the source give for `CC[C@H]1OC(=O)[C@H](C)[C@@H](O[C@H]2C[C@@](C)(OC)[C@@H](O)[C@H](C)O2)[C@H](C)[C@@H](O[C@@H]2O[C@H](C)C[C@H](N(C)C)[C@H]2O)[C@](C)(OC)C[C@@H](C)C(=O)[C@H](C)[C@@H](O)[C@]1(C)O` [CLR, clarithromycin] here?
Answer: Its value is “resistant”.

Question: What about the MIC (H. pylori [1]; 96 h) of the same molecule?
Answer: The MIC was 0.125 µg/mL.

Question: What about the MIC (H. pylori [1]; [6]) of the same molecule?
Answer: Its MIC is 0.19 µg/mL.

Question: And the MIC (H. pylori [1]; [7])?
Answer: The MIC was 0.25 µg/mL.

Question: And the MIC (H. pylori [1]; [8])?
Answer: The MIC was 0.047 µg/mL.

Question: And the MIC (H. pylori [1]; [9])?
Answer: The MIC was 64 µg/mL.

Question: What about the MIC (H. pylori [1]; [10]) of the same molecule?
Answer: The MIC was 1.5 µg/mL.

Question: And the MIC (H. pylori [1]; [11])?
Answer: The MIC was 1.5 µg/mL.

Question: And the MIC (H. pylori [1]; ATCC43504, 96 h, read-out: MIC)?
Answer: The MIC was 0.094 µg/mL.

Question: With `CCCCCCCCNCCC[C@@H](C)[C@H]1CC[C@H]2[C@@H]3[C@H](OCCCN)C[C@@H]4C[C@H](OCCCN)CC[C@]4(C)[C@H]3C[C@H](OCCCN)[C@]12C` [CSA-13] as the molecule, how does the “Antibacterial activity after pre-incubation at pH ~1.5 in the presence of pepsin” value (Escherichia coli MG1655) read?
Answer: The value was “unchanged”.

Question: And the “Antibacterial activity after pre-incubation at pH ~1.5” value (Escherichia coli MG1655)?
Answer: The value was “unchanged”.

Question: And the “Bactericidal activity in the presence of purified gastric mucin” value (Escherichia coli MG1655; mucin 1000 μg/ml, 1 h killing assay at 37°C)?
Answer: The value was “less inhibited by mucin”.

Question: And the “average MBC” value (H. pylori [2])?
Answer: Its value is 2.98 ± 3.11 µg/mL.

Question: And the “MBC after pre-incubation with buffer at low pH containing pepsin or mucin” value (H. pylori [2]; H. pylori ATCC 43504, 1 h pre-incubation at 37°C in simulated gastric juice pH ~1.5 with pepsin or mucin)?
Answer: Its value is “nearly unchanged”.

Question: And the “Change of MBC on addition of 2 mM MgCl2” value (H. pylori [2]; H. pylori ATCC 43504)?
Answer: The value was “four fold increase”.

Question: And the “average MBC” value (H. pylori [2]; [13])?
Answer: Its value is 0.31 ± 0.25 µg/mL.

Question: And the “MBC (minimum bactericidal concentration), range over strains” value (H. pylori [2]; nutrient-containing media, clinical isolates of H. pylori)?
Answer: Its value is 0.275 to 8.9 µg/mL.

Question: And the “Bactericidal concentrations relative to minimal hemolytic concentration” value (human red blood cells; bactericidal concentrations against H. pylori and E. coli MG1655 in saline and nutrient containing buffer)?
Answer: Its value is “below its minimal hemolytic concentration”.

Question: And the MIC50/MBC50 ratio (drug-resistant bacteria)?
Answer: Its MIC50/MBC50 ratio is 1.

Question: And the “Bactericidal concentrations relative to concentrations causing dysfunction of adenocarcinoma cell membranes” value [3]?
Answer: The value was “below concentrations causing dysfunction of adenocarcinoma cell membranes”.

Question: What about the “Stability to pepsin at low pH (mass spectrometry analysis)” value (pepsin) of the same molecule?
Answer: The value was “not changed”.

Question: And the “Adenocarcinoma cell morphology versus control cells” value [4]?
Answer: The value was “no visible difference”.

Question: Which “Antibacterial activity after pre-incubation at pH ~1.5 in the presence of pepsin” value (Escherichia coli MG1655) does the source give for `CC[C@H](C)[C@H](NC(=O)[C@H](CCCCN)NC(=O)[C@H](CCC(=O)O)NC(=O)[C@H](CCCCN)NC(=O)[C@H](CO)NC(=O)[C@H](CCCCN)NC(=O)[C@H](CCCNC(=N)N)NC(=O)[C@H](Cc1ccccc1)NC(=O)[C@H](Cc1ccccc1)NC(=O)[C@H](CC(=O)O)NC(=O)CNC(=O)[C@H](CC(C)C)NC(=O)[C@@H](N)CC(C)C)C(=O)NCC(=O)N[C@@H](CCCCN)C(=O)N[C@@H](CCC(=O)O)C(=O)N[C@@H](Cc1ccccc1)C(=O)N[C@@H](CCCCN)C(=O)N[C@@H](CCCNC(=N)N)C(=O)N[C@H](C(=O)N[C@H](C(=O)N[C@@H](CCC(N)=O)C(=O)N[C@@H](CCCNC(=N)N)C(=O)N[C@H](C(=O)N[C@@H](CCCCN)C(=O)N[C@@H](CC(=O)O)C(=O)N[C@@H](Cc1ccccc1)C(=O)N[C@@H](CC(C)C)C(=O)N[C@@H](CCCNC(=N)N)C(=O)N[C@@H](CC(N)=O)C(=O)N[C@@H](CC(C)C)C(=O)N[C@H](C(=O)N1CCC[C@H]1C(=O)N[C@@H](CCCNC(=N)N)C(=O)N[C@H](C(=O)N[C@@H](CCC(=O)O)C(=O)N[C@@H](CO)C(=O)O)[C@@H](C)O)C(C)C)[C@@H](C)CC)C(C)C)[C@@H](C)CC` [LL-37] here?
Answer: The value was “lost”.

Question: What about the “average MBC” value (H. pylori [2]; 6 h) of the same molecule?
Answer: The value was 300 ± 232 µg/mL.

Question: And the “average MBC” value (H. pylori [2]; [13])?
Answer: Its value is 8.9 ± 4.03 µg/mL.

Question: What about the “Stability to pepsin at low pH (mass spectrometry analysis)” value (pepsin) of the same molecule?
Answer: The value was “extensive degradation”.

Question: What about the “Adenocarcinoma cell morphology versus control cells” value [4] of the same molecule?
Answer: Its value is “no visible difference”.

Question: With `Cc1ncc([N+](=O)[O-])n1CCO` [Metronidazole, metronidazole] as the molecule, how does the “Resistance classification by MIC” value (H. pylori [1]; H. pylori clinical strain 4, resistant when MIC above 16 μg/ml for Metronidazole) read?
Answer: Its value is “resistant”.

Question: What about the “Resistance classification by MIC” value (H. pylori [1]; [12]) of the same molecule?
Answer: Its value is “resistant”.

Question: And the MIC (H. pylori [1]; [5])?
Answer: The MIC was 0.19 µg/mL.

Question: And the MIC (H. pylori [1]; [6])?
Answer: The MIC was 0.094 µg/mL.

Question: What about the MIC (H. pylori [1]; [7]) of the same molecule?
Answer: Its MIC is 0.5 µg/mL.

Question: What about the MIC (H. pylori [1]; [8]) of the same molecule?
Answer: Its MIC is 32 µg/mL.

Question: And the MIC (H. pylori [1]; [9])?
Answer: The MIC was 96 µg/mL.

Question: And the MIC (H. pylori [1]; [10])?
Answer: The MIC was 32 µg/mL.

Question: And the MIC (H. pylori [1]; [11])?
Answer: The MIC was 48 µg/mL.

Question: What about the MIC (H. pylori [1]; ATCC43504, 96 h, read-out: MIC) of the same molecule?
Answer: The MIC was 64 µg/mL.

Question: Which “Susceptibility classification by MIC” value (H. pylori [1]) does the source give for `CN(C)[C@@H]1C(O)=C(C(N)=O)C(=O)[C@@]2(O)C(O)=C3C(=O)c4c(O)cccc4[C@@](C)(O)[C@H]3C[C@@H]12` [TET, tetracycline] here?
Answer: The value was “susceptible”.

Question: Which results are given for RRWVRRVRRWVRRVVRVVRRWVRR [WLBU2]?
Answer: Antibacterial activity after pre-incubation at pH ~1.5 (Escherichia coli MG1655): not significantly changed; Change of MBC on addition of 2 mM MgCl2 (H. pylori [2]; H. pylori ATCC 43504): four fold increase; Hemoglobin release from human red blood cells (human red blood cells; RBC in PBS, hematocrit ~5%, 0-200 μg/ml, 1 h at 37°C, absorbance at 540 nm, 100% = 2% Triton X-100, means of three experiments): strongest hemolytic agent; Adenocarcinoma cell morphology versus control cells [4]: no visible difference
